Source: patent US10940139B2, “Compounds that interact with the Ras superfamily for the treatment of cancers, inflammatory diseases, rasopathies, and fibrotic disease” (Shy Therapeutics LLC, priority 2017, dated 2021)

Tested on: MIA-PACA2 pancreatic cancer cell lines
Assay: Cell proliferation assay, alternate assay conditions (DAPI fluorescence)
Format: cell-based
Details: Homo sapiens, MIA PaCa-2; for inhibition at 10 µM: * = tested at 10 μM, alternate conditions, MIA-PACA2; for IC50: MIA-PACA2, same assay as the % inhibition (alternate conditions)
Description: Cell lines: Tumor-derived pancreatic cancer cell lines MIA-PACA2 were purchased from ATCC and grown in complete DMEM-High Glucose medium supplemented with penicillin (100 U/mL), streptomycin (100 μg/mL), and 10% heat-inactivated FBS at 37° C. in a humidified incubator with 5% CO2.
Method: Cells are plated at 4000 cells/well density in 96-wells plate. The next day tested small molecules are added to the cells in the final concentration of 10 μM in the presence of 0.3% DMSO and 10% FBS. After small molecules addition, cells are incubated for 4 days at 37° C. in a humidified incubator with 5% CO2. For IC50 value determination, serial dilutions of compounds were added to cells under the same conditions.
Assay: At the end of the incubation period, cell cultures are fixed with a 50-50 mixture (v/v) acetone-methanol for 10 minutes at −20° C., followed by rehydration in PBS for 10 minutes at room temperature. After rehydration, cells are stained with DAPI (1 μg/ml) in PBS for 10 minutes at room temperature, followed by 3 washes with PBS. After staining, DAPI fluorescence is recorded (358 nm excitation/461 nm emission) with the 96-well plate reader Molecular Devices Spectramax M3; degree of small mole-cule-dependent proliferation inhibition is calculated from raw data assuming No Serum cells value as 100%.

## Oc1nc(-c2ccccn2)nc2c(Br)c(-c3ccccc3)sc12 [drawing 1855]
  inhibition at 10 µM: 76 to 100%

## CC(C)(C)c1sc2c(O)nc(-c3ccccn3)nc2c1Br [drawing 1856]
  inhibition at 10 µM: 76 to 100%

## Cc1ccc(-c2cc3nc(-c4ccccn4)nc(O)c3s2)cc1 [drawing 1857]
  inhibition at 10 µM: 76 to 100%

## Oc1nc(-c2ccccn2)nc2cc(-c3ccccc3Cl)sc12 [drawing 1858]
  inhibition at 10 µM: 76 to 100%

## COc1c(O)nc(-c2ccccn2)nc1Oc1cccc(C(F)(F)F)c1 [drawing 1859]
  inhibition at 10 µM: 76 to 100%

## Oc1nc(-c2ccccn2)nc(Oc2cccc(C(F)(F)F)c2)c1O [drawing 1860]
  inhibition at 10 µM: 76 to 100%

## Oc1nc(-c2ccccn2)nc2cc(-c3ccc(-c4ccccc4)cc3)sc12 [drawing 1861]
  inhibition at 10 µM: 76 to 100%

## Cc1ccc(-c2csc3c(O)nc(-c4ccccn4)nc23)cc1 [drawing 1862]
  inhibition at 10 µM: 76 to 100%

## Oc1nc(-c2ccccn2)nc2cc(-c3ccncc3)sc12 [drawing 1863]
  inhibition at 10 µM: 76 to 100%

## Oc1nc(-c2ccccn2)nc2cc(-c3ccccc3)sc12 [drawing 1864]
  inhibition at 10 µM: 76 to 100%

## COc1ccc(-c2cc3nc(-c4ccccn4)nc(O)c3s2)cc1 [drawing 1865]
  inhibition at 10 µM: 76 to 100%

## Oc1nc(-c2ccccn2)nc2cc(-c3cccc(Br)c3)sc12 [drawing 1866]
  inhibition at 10 µM: 76 to 100%

## COc1nc(-c2ccccn2)nc(Oc2cccc(C(F)(F)F)c2)c1O [drawing 1867]
  inhibition at 10 µM: 1 to 25%

## COCCN(C)c1nc(-c2nccn2C)nc2sc(-c3ccccc3)c(-c3ccccc3)c12 [drawing 1868]
  inhibition at 10 µM: 76 to 100%
  IC50: > 1000 nM

## CC(C)OCCNc1nc(-c2nccn2C)nc2sc(-c3ccccc3)c(-c3ccccc3)c12 [drawing 1869]
  inhibition at 10 µM: 76 to 100%

## Cn1ccnc1-c1nc(NCCOC(F)(F)F)c2c(-c3ccccc3)c(-c3ccccc3)sc2n1 [drawing 1870]
  inhibition at 10 µM: 76 to 100%

## CC(O)CNc1nc(-c2nccn2C)nc2sc(-c3ccccc3)c(-c3ccccc3)c12 (stereo not drawn) [drawing 1871]
  inhibition at 10 µM: 76 to 100%

## COCCCNc1nc(-c2nccn2C)nc2sc(-c3ccccc3)c(-c3ccccc3)c12 [drawing 1872]
  inhibition at 10 µM: 76 to 100%
  IC50: 501 to 1000 nM

## COC1CCN(c2nc(-c3nccn3C)nc3sc(-c4ccccc4)c(-c4ccccc4)c23)C1 (stereo not drawn) [drawing 1873]
  inhibition at 10 µM: 76 to 100%
  IC50: 501 to 1000 nM

## CCOCCOc1nc(-c2nccn2C)nc2sc(-c3ccccc3)c(-c3ccccc3)c12 [drawing 1874]
  inhibition at 10 µM: 76 to 100%

## CCN(CC)CCOc1nc(-c2nccn2C)nc2sc(-c3ccccc3)c(-c3ccccc3)c12 [drawing 1875]
  inhibition at 10 µM: 76 to 100%

## COCCNc1nc(-c2ccncn2)nc2sc(-c3ccccc3)c(-c3ccccc3)c12 [drawing 1876]
  inhibition at 10 µM: 51 to 75%

## CCOCCNc1nc(-c2nccn2C)nc2sc(-c3ccccc3)c(-c3ccccc3)c12 [drawing 1877]
  inhibition at 10 µM: 76 to 100%
  IC50: 501 to 1000 nM

## Cn1ccnc1-c1nc(NCCOC2CC2)c2c(-c3ccccc3)c(-c3ccccc3)sc2n1 [drawing 1878]
  inhibition at 10 µM: 76 to 100%

## COCC(C)Nc1nc(-c2nccn2C)nc2sc(-c3ccccc3)c(-c3ccccc3)c12 (stereo not drawn) [drawing 1879]
  inhibition at 10 µM: 76 to 100%
  IC50: 501 to 1000 nM

## CC(CO)Nc1nc(-c2nccn2C)nc2sc(-c3ccccc3)c(-c3ccccc3)c12 (stereo not drawn) [drawing 1880]
  inhibition at 10 µM: 76 to 100%

## Cn1ccnc1-c1nc(NCCCO)c2c(-c3ccccc3)c(-c3ccccc3)sc2n1 [drawing 1881]
  inhibition at 10 µM: 76 to 100%

## COCCNc1nc(-c2nccn2C)nc2sc(-c3ccccc3)c(-c3ccccc3Cl)c12 [drawing 1882]
  inhibition at 10 µM: 76 to 100%
  IC50: > 1000 nM

## COCCNc1nc(-c2nccn2C)nc2sc(-c3ccccc3Cl)c(-c3ccccc3)c12 [drawing 1883]
  inhibition at 10 µM: 76 to 100%
  IC50: 501 to 1000 nM

## COCCNc1nc(-c2nccn2C)nc2sc(-c3ccncc3)c(-c3ccccc3)c12 [drawing 1884]
  inhibition at 10 µM: 76 to 100%

## COCCNc1nc(-c2cn(C)cn2)nc2sc(-c3ccccc3)c(-c3ccccc3)c12 [drawing 1885]
  inhibition at 10 µM: 76 to 100%
  IC50: > 1000 nM
